According to ChEMBL document CHEMBL5055650, “4-Acyl Pyrrole Capped HDAC Inhibitors: A New Scaffold for Hybrid Inhibitors of BET Proteins and Histone Deacetylases as Antileukemia Drug Leads” (J Med Chem, 2021):
Active and inactive are the calls of the source. The calls are words filed in the database; no cut-off is given here.

Experiments:
[1] = test system: TALL-1; experiment: Anticancer activity against human TALL-1 cells assessed as cell growth inhibition by CellTiter-Glo luminescent assay; assay type: functional, cell-based
[2] = test system: TALL-1; experiment: Cytotoxicity against human TALL-1 cells assessed as cell viability at 5 uM by CellTiter-Glo luminescent assay; assay type: functional; conditions: read-out: Activity
[3] = test system: K562; experiment: Anticancer activity against human K562 cells assessed as cell growth inhibition by CellTiter-Glo luminescent assay; assay type: functional, cell-based
[4] = target: T1, Histone deacetylase (Homo sapiens) (UniProt Q13547+O15379+Q9UBN7+Q92769+Q9UQL6+Q8WUI4+Q9BY41+Q96DB2+P56524+Q9UKV0+Q969S8); experiment: Inhibition of HDAC in human K562 cells assessed as increase in acetylated alpha-tubulin measured after 48 hrs by Western blot analysis; assay type: cell-based
[5] = test system: MOLT-4; experiment: Cytotoxicity against human MOLT-4 cells assessed as cell viability at 5 uM by CellTiter-Glo luminescent assay; assay type: functional; conditions: read-out: Activity
[6] = test system: REH; experiment: Anticancer activity against human REH cells assessed as cell growth inhibition by CellTiter-Glo luminescent assay; assay type: functional, cell-based
[7] = target: Histone deacetylase 3 (Homo sapiens, UniProt O15379); experiment: Inhibition of human HDAC3 assessed as target activity using fluorogenic substrate ZMAL for 90 min by microplate reader at 355nm
Chain of Histone deacetylase 3 (O15379 whole entry): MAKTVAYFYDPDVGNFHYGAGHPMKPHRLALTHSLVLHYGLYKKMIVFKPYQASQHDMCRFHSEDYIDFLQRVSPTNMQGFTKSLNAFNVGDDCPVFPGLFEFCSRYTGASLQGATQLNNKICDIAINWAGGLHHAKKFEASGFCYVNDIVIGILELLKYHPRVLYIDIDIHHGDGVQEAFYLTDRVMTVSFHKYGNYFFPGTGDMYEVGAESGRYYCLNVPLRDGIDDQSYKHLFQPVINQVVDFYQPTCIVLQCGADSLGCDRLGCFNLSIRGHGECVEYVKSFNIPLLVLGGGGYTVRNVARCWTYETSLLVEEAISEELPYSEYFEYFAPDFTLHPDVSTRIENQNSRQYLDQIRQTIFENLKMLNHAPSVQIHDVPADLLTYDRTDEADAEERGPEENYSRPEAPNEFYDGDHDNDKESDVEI

[8] = test system: HL-60; experiment: Anticancer activity against human HL-60 cells assessed as cell growth inhibition by CellTiter-Glo luminescent assay; assay type: functional, cell-based
[9] = target: Bromodomain-containing protein 2 (Homo sapiens, UniProt P25440); experiment: Binding affinity to human BRD2 domain 2 assessed as dissociation constant by isothermal titration calorimetry assay
Chain of Bromodomain-containing protein 2 (P25440 whole entry, the tested form may be a part): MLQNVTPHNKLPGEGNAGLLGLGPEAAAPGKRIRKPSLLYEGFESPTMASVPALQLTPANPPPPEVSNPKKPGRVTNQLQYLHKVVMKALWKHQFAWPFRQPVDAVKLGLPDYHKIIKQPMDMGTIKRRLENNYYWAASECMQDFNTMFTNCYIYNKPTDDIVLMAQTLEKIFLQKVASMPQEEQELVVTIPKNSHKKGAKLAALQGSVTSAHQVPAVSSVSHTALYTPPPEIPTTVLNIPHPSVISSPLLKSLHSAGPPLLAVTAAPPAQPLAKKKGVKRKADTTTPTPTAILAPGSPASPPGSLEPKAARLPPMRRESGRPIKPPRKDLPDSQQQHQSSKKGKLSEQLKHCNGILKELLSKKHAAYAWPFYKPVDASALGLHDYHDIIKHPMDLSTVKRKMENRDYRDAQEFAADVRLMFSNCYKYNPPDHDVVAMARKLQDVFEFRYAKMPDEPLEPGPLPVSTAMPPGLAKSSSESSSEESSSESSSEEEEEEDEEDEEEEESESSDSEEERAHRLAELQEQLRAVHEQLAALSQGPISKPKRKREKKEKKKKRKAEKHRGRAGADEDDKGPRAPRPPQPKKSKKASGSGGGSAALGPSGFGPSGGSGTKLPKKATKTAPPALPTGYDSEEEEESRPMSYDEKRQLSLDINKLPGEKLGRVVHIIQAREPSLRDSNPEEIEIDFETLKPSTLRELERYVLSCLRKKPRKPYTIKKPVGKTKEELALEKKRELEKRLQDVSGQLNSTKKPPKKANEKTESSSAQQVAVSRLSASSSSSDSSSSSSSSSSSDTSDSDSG

[10] = target: T2, Bromodomain-containing protein 7 (Homo sapiens, UniProt Q9NPI1); experiment: Binding affinity to human BRD7 assessed as dissociation constant by isothermal titration calorimetry assay
T2 sequence (Q9NPI1 whole entry): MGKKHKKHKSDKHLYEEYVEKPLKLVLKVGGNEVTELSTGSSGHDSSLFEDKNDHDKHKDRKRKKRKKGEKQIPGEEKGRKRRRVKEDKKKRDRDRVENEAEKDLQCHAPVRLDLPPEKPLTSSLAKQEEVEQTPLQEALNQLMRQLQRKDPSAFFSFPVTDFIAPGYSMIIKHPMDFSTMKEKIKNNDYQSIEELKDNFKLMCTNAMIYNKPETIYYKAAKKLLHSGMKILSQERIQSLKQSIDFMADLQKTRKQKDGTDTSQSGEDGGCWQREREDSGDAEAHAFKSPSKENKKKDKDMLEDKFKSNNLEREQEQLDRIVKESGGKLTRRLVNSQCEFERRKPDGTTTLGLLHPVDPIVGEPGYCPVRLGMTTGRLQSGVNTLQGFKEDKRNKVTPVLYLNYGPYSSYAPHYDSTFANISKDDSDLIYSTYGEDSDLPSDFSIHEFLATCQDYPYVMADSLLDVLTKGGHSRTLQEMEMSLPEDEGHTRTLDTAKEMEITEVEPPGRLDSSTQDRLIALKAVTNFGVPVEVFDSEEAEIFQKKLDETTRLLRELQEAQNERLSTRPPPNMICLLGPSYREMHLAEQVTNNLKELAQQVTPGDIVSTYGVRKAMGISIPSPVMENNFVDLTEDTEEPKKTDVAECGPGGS

[11] = test system: HPBALL; experiment: Induction of apoptosis in human HPBALL cells assessed as accumulation at sub-G1 phase at 5 uM after 72 hrs by flow cytometry; assay type: functional, cell-based
[12] = target: Bromodomain-containing protein 3 (Homo sapiens, UniProt Q15059); experiment: Binding affinity to human BRD3 domain 2 assessed as dissociation constant by isothermal titration calorimetry assay
Chain of Bromodomain-containing protein 3 (Q15059 whole entry, the tested form may be a part): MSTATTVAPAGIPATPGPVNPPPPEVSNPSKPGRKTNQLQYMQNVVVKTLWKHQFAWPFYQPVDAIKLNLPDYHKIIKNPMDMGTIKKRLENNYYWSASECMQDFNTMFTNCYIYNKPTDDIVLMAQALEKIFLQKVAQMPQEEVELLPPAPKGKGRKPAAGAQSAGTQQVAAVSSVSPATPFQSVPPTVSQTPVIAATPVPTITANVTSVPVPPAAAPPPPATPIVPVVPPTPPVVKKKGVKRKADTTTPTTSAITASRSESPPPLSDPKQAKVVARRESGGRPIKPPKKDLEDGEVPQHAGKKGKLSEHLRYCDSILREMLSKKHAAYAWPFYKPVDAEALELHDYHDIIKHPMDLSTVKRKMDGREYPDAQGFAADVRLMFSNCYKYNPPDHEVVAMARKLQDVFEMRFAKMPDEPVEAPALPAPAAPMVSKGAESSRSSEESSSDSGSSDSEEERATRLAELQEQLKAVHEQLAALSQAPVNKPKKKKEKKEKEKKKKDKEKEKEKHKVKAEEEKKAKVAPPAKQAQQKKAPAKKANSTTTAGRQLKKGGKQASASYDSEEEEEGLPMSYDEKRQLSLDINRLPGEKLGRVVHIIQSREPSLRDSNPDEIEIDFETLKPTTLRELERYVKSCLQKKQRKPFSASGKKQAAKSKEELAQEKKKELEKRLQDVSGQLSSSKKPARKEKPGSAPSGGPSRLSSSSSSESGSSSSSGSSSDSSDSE

[13] = test system: HAL-01; experiment: Anticancer activity against human HAL-01 cells assessed as cell growth inhibition by CellTiter-Glo luminescent assay; assay type: functional, cell-based
[14] = target: T3, Protein deacetylase HDAC6 (Homo sapiens, UniProt Q9UBN7); experiment: Inhibition of human recombinant HDAC6 assessed as fluorescence using fluorogenic substrate ZMAL incubated for 90 min by microplate reader
T3 sequence (Q9UBN7 whole entry): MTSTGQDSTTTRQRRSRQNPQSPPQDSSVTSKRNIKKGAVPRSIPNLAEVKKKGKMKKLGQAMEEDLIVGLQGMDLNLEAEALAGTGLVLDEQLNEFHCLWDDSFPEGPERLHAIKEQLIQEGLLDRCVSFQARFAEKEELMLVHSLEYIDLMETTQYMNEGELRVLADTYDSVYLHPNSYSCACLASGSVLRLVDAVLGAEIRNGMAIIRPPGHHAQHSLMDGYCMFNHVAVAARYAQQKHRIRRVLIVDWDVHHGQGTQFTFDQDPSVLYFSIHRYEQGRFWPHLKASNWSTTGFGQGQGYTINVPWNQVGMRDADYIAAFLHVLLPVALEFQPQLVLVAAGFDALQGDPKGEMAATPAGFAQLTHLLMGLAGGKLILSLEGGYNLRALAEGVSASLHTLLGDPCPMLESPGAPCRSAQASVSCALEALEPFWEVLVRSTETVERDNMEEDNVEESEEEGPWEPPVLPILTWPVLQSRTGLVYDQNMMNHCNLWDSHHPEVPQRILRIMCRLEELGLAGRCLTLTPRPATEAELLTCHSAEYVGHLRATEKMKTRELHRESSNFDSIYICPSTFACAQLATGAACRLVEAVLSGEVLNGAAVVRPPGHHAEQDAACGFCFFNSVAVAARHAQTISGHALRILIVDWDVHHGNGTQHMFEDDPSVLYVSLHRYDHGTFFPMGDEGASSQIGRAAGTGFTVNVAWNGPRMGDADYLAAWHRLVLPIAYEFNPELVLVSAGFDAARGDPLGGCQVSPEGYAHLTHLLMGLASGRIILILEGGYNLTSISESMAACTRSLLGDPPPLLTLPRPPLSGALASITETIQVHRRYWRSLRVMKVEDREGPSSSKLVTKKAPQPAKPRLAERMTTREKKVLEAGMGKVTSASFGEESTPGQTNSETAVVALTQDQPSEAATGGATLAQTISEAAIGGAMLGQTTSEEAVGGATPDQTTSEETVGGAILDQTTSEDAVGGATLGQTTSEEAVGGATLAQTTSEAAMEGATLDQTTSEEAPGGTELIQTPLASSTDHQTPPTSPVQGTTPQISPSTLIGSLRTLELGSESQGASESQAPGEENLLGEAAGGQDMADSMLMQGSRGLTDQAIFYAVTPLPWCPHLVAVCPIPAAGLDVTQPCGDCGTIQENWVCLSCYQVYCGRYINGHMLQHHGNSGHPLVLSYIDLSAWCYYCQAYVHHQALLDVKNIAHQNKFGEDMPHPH

[15] = target: T1, Histone deacetylase (Homo sapiens); experiment: Inhibition of HDAC in human K562 cells assessed as increase in acetylated histone H3 measured after 48 hrs by Western blot analysis; assay type: cell-based
[16] = target: T1, Histone deacetylase (Homo sapiens); experiment: Inhibition of HDAC in human K562 cells assessed as decrease in MYC expression measured after 24 to 72 hrs by Western blot analysis; assay type: cell-based; conditions: time 24-72 hrs
[17] = target: Bromodomain-containing protein 4 (Homo sapiens, UniProt O60885); experiment: Binding affinity to human BRD4 domain 1 (unknown origin) assessed as dissociation constant by isothermal titration calorimetry assay; conditions: read-out: Kd
[18] = test system: HPBALL; experiment: Induction of apoptosis in human HPBALL cells assessed as decrease in MYC protein levels at 5 uM after 24 hrs by Western blot analysis; assay type: functional, cell-based

| Compound | IC50 [1] | viability at 5 µM [2] | IC50 [3] | Activity [4] | viability at 5 µM [5] | IC50 [6] | IC50 [7] | IC50 [8] | Kd [9] | Kd [10] | Activity [11] | Kd [12] | IC50 [13] | IC50 [14] | Activity [15] | inhibition [16] | Kd [17] | Activity [18] | Activity [16] |
| --- | --- | --- | --- | --- | --- | --- | --- | --- | --- | --- | --- | --- | --- | --- | --- | --- | --- | --- | --- |
| Cc1[nH]c(C(=O)Nc2cc(S(=O)(=O)N3CCOCC3)ccc2OCCCCCCCC(=O)NO)c2c1C(=O)CCCC2 | 2.93 µM | 50% | 5.99 µM | Active | 1.7% | 7.79 µM | 0.296 µM | 2.75 µM | 0.067 µM | 0.125 µM | Active | 0.1 µM | 5.93 µM | 0.067 µM | Active | Active | 0.076 µM | Active |  |
| COc1ccc(S(=O)(=O)n2ccc(/C=C/C(=O)NO)c2)cc1NC(=O)c1[nH]c(C)c2c1CCCCC2=O | 2.33 µM | 10.6% | 2.9 µM | Active | 4% | 9.76 µM | 0.064 µM | 4.63 µM | 3.1 µM | 0.23 µM | Active | 3.75 µM | 6.41 µM | 0.046 µM | Active | Active | 0.79 µM | Active |  |
| CCc1c(C(=O)Nc2cc(/C=C/C(=O)NO)ccc2OC)[nH]c(C)c1C(C)=O | 2.88 µM | 15.1% | 3.4 µM | Active | 3.5% | > 25 µM | 0.119 µM | 7.82 µM | 3.3 µM | 8.5 µM | Active | 7.55 µM | > 25 µM | 0.042 µM | Active |  | 2.98 µM | Active | Active |
